This note sets out measurements from US20030215788A1, “Cysteine thiol-protected peptides for use in immunoassays” (priority 1989, published 2003).

Non-standard residues stand in square brackets, D forms with d. No end group written: not given here. Cys∗ = not defined here

Common to all, as to type: binding, human
One test has as its system Antibodies to HIV-2. The test can be described thus: EIA of dilutional series of HIV-2 positive sera. Here is the method:
Alternative methods of testing immunologic cross-reactivity were also used. In one such method L5 Peptides 39 and 39GC were tested by ELISA as previously described in U.S. Pat. No. 4,629,783. Briefly, stock solutions of peptides 39 and 39-GC were prepared in 6M Gu-HCl. Working dilutions of 20 µg/ml and 6 μg/ml respectively were prepared by dilution of stock solution 0 with 0.05M carbonate/bicarbonate buffer, pH 9.5. Wells of microtiter plates were filled with 100 μl of the working dilution of the peptides and allowed to stand overnight at room temperature. Coating solution was removed and 300 μl of blocking solution supra containing 0.5M ethanolamine was added for 1 hr. at room temperature. Blocking solution was removed and the plates were used immediately or allowed to dry and stored for later use.
Plasma samples were diluted (See Table 1) in sample dilution buffer (above) and 100 μl was added to individual wells. Samples were incubated for 30 min. at 37° C., then removed and the wells were washed six times with 0.15M NaCl, 0.05% Tween 20. One hundred microliters of goat antihuman Ig-horseradish peroxidase conjugate diluted in citrate buffer, pH 7.0, 1% normal goat serum was added to each well for 30 min at 37° C. prior to washing six times as above. The ELISA assay was developed by adding 100 μl/well of substrate solution (80 μg/ml tetramethyl benzidine, 0.0015% hydrogen peroxide in citrate/phosphate buffer, pH 6.0) for 30 min. at room temperature. Reactions were stopped with the addition of 100 μl of H2SO4 per well, and the ratio of the optical density at 450 nm to 630 nm was determined by an automated ELISA reader. The cutoff value for a positive result was set at 0.225 Absorbance Units above the average absorbance obtained for three known negative samples.
The immunoreactivity of HIV-2 peptides synthesized with protected cysteine thiol groups was determined. […] EIAs were performed as described above using viral lysates of HIV-1 and HIV-2 and peptides 39GC (HIV-1) and 41-2-3GC. Reactivity was determined for dilutions of two HIV-2 positive sera, F504282, obtained from a patient in New York, and “GOM,” provided by the Institut Pasteur.
The assays were EIAs performed generally as described above with varying dilutions of HIV-2 positive serum specimens.

Test [1] concerns antibodies to HTLV-I and/or HTLV-II. The test can be described thus: membrane concentration immunoassay with peptide 121-1GC1 on suspected HTLV-I/II sera. The note with it: for Reactivity with deprotected peptide (color grade): 80 μg peptide/5 mg bead/550 μl. Here is the method:
Serum or plasma samples (40 μl) were diluted 1:10 in dilution buffer (10% heat inactivated normal goat serum, 1% dextran sulfate, 0.2% Tween 20, 2.5% nonfat dry milk, 15 ppm Kathon CG, 0.005% antifoam A, in 20 mM sodium citrate buffer, pH 7.4). Diluted specimen was added to the surface of the membrane and allowed to absorb completely. After waiting 2 min. from the time of specimen addition, 1 ml of wash buffer (0.01M Tris-buffered saline, pH 6.0, 0.05M NaCl, 0.005M MgCl2, 0.1% sodium azide, 10 μg/ml nitro blue tetrazolium, 0.5M potassium thiocyanate) was added and allowed to completely absorb through the membrane. About 0.150 ml (3 drops) of goat anti-human Ig-alkaline phosphatase conjugate diluted in 10 mM phosphate buffered saline, pH 7.4, 0.2% goat gamma globulin, 1% bovine serum albumin, 1 mM MgCl2, 0.1 mM ZnCl2 was added to the membrane and allowed to absorb completely. The membrane was washed twice as above (2 ml) and about 0.150 ml (3 drops) of substrate (1M 2-amino-2-methyl-1-propanol, pH 10.3, 5 mg/ml 3-indoxyl phosphate) was added and allowed to absorb completely. After about 5 min. about 1 ml of 0.5M EDTA, pH 7.4, was passed through the membrane to stop the reaction. After the stop solution was completely absorbed the units were read visually or semi-quantitatively by reflectance.
A wide variety of positive, negative, EIA positive/western blot a typical and immune sensitized specimens have been tested with the preferred peptide 39 analog, peptide 39-GC, as the test antigen.
Results of assays with peptide 121-1GC1 were compared to those obtained with other HTLV-I/II tests, such as the polymerase chain reaction (PCR), radioimmunoprecipitation (RIP), Western blot (WB), and viral lysate EIAS. The procedure as described in Example II was used for peptide 121-1GC1, except that two drops of samples were used and the conjugate was used at a two-fold higher concentration. The assays were performed with 10 serum samples suspected of containing antibodies to HTLV-I and/or HTLV-II. The PCR assay for HTLV-II was performed generally according to PCR Technology, Principles and Applications for DNA Amplification, ed. H. A. Ehrlich, Stockton Press, N.Y. (1989), incorporated herein by reference.
In other experiments, screening of the HTLV-I peptide in a variety of forms against a serum panel of suspected HTLV-I/II positive individuals yielded inconclusive results when compared to results obtained by RIP, Western blot, and commercially available HTLV-I EIA assays.

The subject of another test is Antibodies to HTLV-I. The test is described as follows: HTLV-I peptides on latex microparticles tested for reactivity with control sera. The note with it: Serum Sample 40359, HTLV-I EIA positive control, undiluted; 50 μg peptide/5 mg beads/550 μl.

For “Cys-Gly-Gly-Gln-Asp-Gln-Ala-Arg-Leu-Asn-Ser-Trp-Gly-Cys*-Ala-Phe-Arg-Gln-Val-Cys*-NH2 [Peptide 41-2-3GC]”, the “Reactivity in EIA” value in the test on Antibodies to HIV-2 (HIV-2 positive serum F504282 (A), 1:5) was 3.000; in the test on Antibodies to HIV-2 (HIV-2 positive serum F504282 (A), 1:10) it was 3.000; in the test on Antibodies to HIV-2 (HIV-2 positive serum F504282 (A), 1:20), 3.000; in the test with Antibodies to HIV-2 (HIV-2 positive serum F504282 (A), 1:40), 2.828; with Antibodies to HIV-2 (HIV-2 positive serum F504282 (A), 1:80) it was 2.107; in the test with Antibodies to HIV-2 (HIV-2 positive serum F504282 (A), 1:160), 1.441. Besides, the “Reactivity in EIA” value in the test with Antibodies to HIV-2 (HIV-2 positive serum F504282 (A), 1:320) stood at 0.941; with Antibodies to HIV-2 (HIV-2 positive serum F504282 (A), 1:640), 0.588; in the test with Antibodies to HIV-2 (HIV-2 positive serum F504282 (A), 1:1280) it was 0.302; in the test with Antibodies to HIV-2 (HIV-2 positive serum F504282 (A), 1:2560) it was 0.180; in the test on Antibodies to HIV-2 (HIV-2 positive serum F504282 (A), Neat), 3.000; in the test with Antibodies to HIV-2 (HIV-2 positive serum GOM (B), 1:2) it was 3.000. For the same substance, the “Reactivity in EIA” value in the test with Antibodies to HIV-2 (HIV-2 positive serum GOM (B), 1:4) came to 3.000; in the test with Antibodies to HIV-2 (HIV-2 positive serum GOM (B), 1:8), 3.000; in the test with Antibodies to HIV-2 (HIV-2 positive serum GOM (B), 1:16) it was 3.000; with Antibodies to HIV-2 (HIV-2 positive serum GOM (B), 1:32), 3.000; in the test on Antibodies to HIV-2 (HIV-2 positive serum GOM (B), 1:64), 2.524; in the test with Antibodies to HIV-2 (HIV-2 positive serum GOM (B), 1:128), 2.202. Besides, the “Reactivity in EIA” value turned out to be 1.452 in the test on Antibodies to HIV-2 (HIV-2 positive serum GOM (B), 1:256); 0.811 in the test on Antibodies to HIV-2 (HIV-2 positive serum GOM (B), 1:512); 0.571 with Antibodies to HIV-2 (HIV-2 positive serum GOM (B), 1:1024); 3.000 with Antibodies to HIV-2 (HIV-2 serum PIN, 1:2); 3.000 with Antibodies to HIV-2 (HIV-2 serum PIN, 1:4); 2.596 with Antibodies to HIV-2 (HIV-2 serum PIN, 1:8). Moreover, the “Reactivity in EIA” value in the test with Antibodies to HIV-2 (HIV-2 serum PIN, 1:16) turned out to be 1.940; in the test on Antibodies to HIV-2 (HIV-2 serum PIN, 1:32), 1.209; in the test with Antibodies to HIV-2 (HIV-2 serum PIN, 1:64), 0.582; in the test on Antibodies to HIV-2 (HIV-2 serum PIN, 1:128), 0.368; in the test on Antibodies to HIV-2 (HIV-2 serum PIN, 1:256), 0.186; in the test on Antibodies to HIV-2 (HIV-2 serum S, 1:2) it was 3.000. The “Reactivity in EIA” value in the test on Antibodies to HIV-2 (HIV-2 serum S, 1:4) is 3.000; in the test with Antibodies to HIV-2 (HIV-2 serum S, 1:8) it was 3.000; in the test on Antibodies to HIV-2 (HIV-2 serum S, 1:16), 3.000; with Antibodies to HIV-2 (HIV-2 serum S, 1:32), 2.632; with Antibodies to HIV-2 (HIV-2 serum S, 1:64), 2.155; in the test with Antibodies to HIV-2 (HIV-2 serum S, 1:128), 1.442. Besides, the “Reactivity in EIA” value in the test with Antibodies to HIV-2 (HIV-2 serum S, 1:256) stood at 0.725; in the test with Antibodies to HIV-2 (HIV-2 serum S, 1:512), 0.516; in the test on Antibodies to HIV-2 (HIV-2 serum SAMB, 1:2), 3.000; in the test with Antibodies to HIV-2 (HIV-2 serum SAMB, 1:4), 3.000; in the test on Antibodies to HIV-2 (HIV-2 serum SAMB, 1:8), 2.854; in the test with Antibodies to HIV-2 (HIV-2 serum SAMB, 1:16), 2.710. Moreover, the “Reactivity in EIA” value in the test on Antibodies to HIV-2 (HIV-2 serum SAMB, 1:32) worked out at 2.112; in the test on Antibodies to HIV-2 (HIV-2 serum SAMB, 1:64) it was 1.400; in the test on Antibodies to HIV-2 (HIV-2 serum SAMB, 1:128), 0.834; in the test with Antibodies to HIV-2 (HIV-2 serum SAMB, 1:256), 0.404.

In the case of “H-CGG-QNRRGLDLLFWEQGGLC*KALQEQC*-NH2 (chain 1 H-CGGQNRRGLDLLFWEQGGLC; chain 2 KALQEQC-NH2; not fully specified; cysteine pairing not given here) [Peptide 121-1GC1]”, the “Reactivity with deprotected peptide (color grade)” value in test [1] (Sample No. 39266), in test [1] (Sample No. 89232), in test [1] (Sample No. 89379), in test [1] (Sample No. 89430) and in test [1] (Sample No. 89442) was “trace” each time. Further, the “result on serum panel of suspected HTLV-I/II positive individuals” value in test [1] (compared with RIP, Western blot and commercial HTLV-I EIA) is given as “Some samples which were purportedly positive by certain of the tests were negative”.

Take “H-QNRRGLDLLFWEQGGLC*KALQEQC*-NH2 (chain 1 H-QNRRGLDLLFWEQGGL[Cys∗]; chain 2 KALQEQ[Cys∗]-NH2; not fully specified; reading uncertain; also: modified residues) [Peptide 121-1G1]”: the “Reactivity to Antibodies to HTLV-I (color grade)” value in the test with Antibodies to HTLV-I is on record as “trace”.
